Reference: PubChem BioAssay AID1259407 (Chemical Carcinogenesis Research Information System (CCRIS), 2018)
The source made the active and inactive calls. The rule behind the calls is not given here.

System: CCRIS mutagenicity, Ames/micronucleus/aberration tests
Assay: CCRIS mutagenicity studies
[1] = Test System: AMES SALMONELLA TYPHIMURIUM, Strain/Indicator: TA98, Metabolic Activation: NONE, Method: PREINCUBATION
[2] = Test System: AMES SALMONELLA TYPHIMURIUM, Strain/Indicator: TA98, Metabolic Activation: NONE, Method: STANDARD PLATE
[3] = Test System: AMES SALMONELLA TYPHIMURIUM, Strain/Indicator: TA98, Metabolic Activation: RAT, LIVER, S-9, AROCLOR 1254, Method: STANDARD PLATE
[4] = Test System: AMES SALMONELLA TYPHIMURIUM, Strain/Indicator: TA100, Metabolic Activation: NONE, Method: STANDARD PLATE
[5] = Test System: AMES SALMONELLA TYPHIMURIUM, Strain/Indicator: TA100, Metabolic Activation: NONE, Method: PREINCUBATION
[6] = Test System: AMES SALMONELLA TYPHIMURIUM, Strain/Indicator: TA98, Metabolic Activation: HAMSTER, LIVER, S-9, AROCLOR 1254 (30%), Method: PREINCUBATION
[7] = Test System: AMES SALMONELLA TYPHIMURIUM, Strain/Indicator: TA98, Metabolic Activation: RAT, LIVER, S-9, AROCLOR 1254 (30%), Method: PREINCUBATION

SMILES: O=[N+]([O-])CBr
- mutagenic call (End Point: In vitro micronucleus, Test System: Human lymphoblastoid TK6 cells, Metabolic Activation: None): inactive; negative
- mutagenic call (End Point: In vitro micronucleus, Test System: Human peripheral blood lymphocytes, Metabolic Activation: None): inactive; negative
- mutagenic call (Test System: Ames Salmonella typhimurium, Strain/Indicator: RSJ100, Metabolic Activation: None, Method: Standard plate): inactive; negative
- mutagenic call (Test System: Ames Salmonella typhimurium, Strain/Indicator: RSJ100, Metabolic Activation: Rat, Liver, S-9, Aroclor, Method: Standard plate): inactive; negative
- mutagenic call (Test System: Ames Salmonella typhimurium, Strain/Indicator: TA98, Metabolic Activation: None, Method: Standard plate): inactive; negative
- mutagenic call (Test System: Ames Salmonella typhimurium, Strain/Indicator: TA98, Metabolic Activation: Rat, Liver, S-9, Aroclor, Method: Standard plate): inactive; negative
- mutagenic call (Test System: Ames Salmonella typhimurium, Strain/Indicator: TA100, Metabolic Activation: None, Method: Standard plate): active; positive
- mutagenic call (Test System: Ames Salmonella typhimurium, Strain/Indicator: TA100, Metabolic Activation: Rat, Liver, S-9, Aroclor, Method: Standard plate): active; positive
- mutagenic call (Test System: Ames Salmonella typhimurium, Strain/Indicator: TA104, Metabolic Activation: None, Method: Standard plate): inactive; negative
- mutagenic call (Test System: Ames Salmonella typhimurium, Strain/Indicator: TPT100, Metabolic Activation: None, Method: Standard plate): inactive; negative

SMILES: Cc1cccc2cc([N+](=O)[O-])ccc12
- mutagenic call [1]: active; positive

SMILES: CCC(=O)N(O)c1ccc(Cl)c(Cl)c1
- mutagenic call (Test System: AMES SALMONELLA TYPHIMURIUM, Strain/Indicator: TA97, Metabolic Activation: NONE, Method: STANDARD PLATE): inactive; negative
- mutagenic call (Test System: AMES SALMONELLA TYPHIMURIUM, Strain/Indicator: TA97, Metabolic Activation: RAT, LIVER, S-9, AROCLOR 1254, Method: STANDARD PLATE): inactive; negative
- mutagenic call [2]: inactive; negative
- mutagenic call [3]: inactive; negative
- mutagenic call [4]: inactive; negative
- mutagenic call (Test System: AMES SALMONELLA TYPHIMURIUM, Strain/Indicator: TA100, Metabolic Activation: RAT, LIVER, S-9, AROCLOR 1254, Method: STANDARD PLATE): inactive; negative
- mutagenic call (Test System: AMES SALMONELLA TYPHIMURIUM, Strain/Indicator: TA104, Metabolic Activation: NONE, Method: STANDARD PLATE): inactive; negative
- mutagenic call (Test System: AMES SALMONELLA TYPHIMURIUM, Strain/Indicator: TA104, Metabolic Activation: RAT, LIVER, S-9, AROCLOR 1254, Method: STANDARD PLATE): inactive; negative

SMILES: Cn1c2ccccc2c(=O)c2c(O)cc3c(c21)CC(C1(C)CO1)O3 (centres undefined)
- mutagenic call [2]: active; positive
- mutagenic call (Test System: AMES SALMONELLA TYPHIMURIUM, Strain/Indicator: TA98, Metabolic Activation: RAT, LIVER, S-9, 3-METHYLCHOLANTHRENE, Method: STANDARD PLATE): active; positive
- mutagenic call (Test System: AMES SALMONELLA TYPHIMURIUM, Strain/Indicator: TA98, Metabolic Activation: RAT, LIVER, S-9, PHENOBARBITAL, Method: STANDARD PLATE): active; positive
- mutagenic call (Test System: AMES SALMONELLA TYPHIMURIUM, Strain/Indicator: TA98, Metabolic Activation: RAT, LIVER, S-9, Method: STANDARD PLATE): active; positive
- mutagenic call [4]: active; positive
- mutagenic call (Test System: AMES SALMONELLA TYPHIMURIUM, Strain/Indicator: TA100, Metabolic Activation: RAT, LIVER, S-9, 3-METHYLCHOLANTHRENE, Method: STANDARD PLATE): active; positive
- mutagenic call (Test System: AMES SALMONELLA TYPHIMURIUM, Strain/Indicator: TA100, Metabolic Activation: RAT, LIVER, S-9, PHENOBARBITAL, Method: STANDARD PLATE): active; positive
- mutagenic call (Test System: AMES SALMONELLA TYPHIMURIUM, Strain/Indicator: TA100, Metabolic Activation: RAT, LIVER, S-9, Method: STANDARD PLATE): active; positive

SMILES: Cc1cccc2cc3ccc4ccccc4c3nc12
- mutagenic call (Test System: AMES SALMONELLA TYPHIMURIUM, Strain/Indicator: TA97A, Metabolic Activation: NONE, Method: PREINCUBATION): inactive; negative
- mutagenic call [1]: inactive; negative
- mutagenic call [5]: inactive; negative
- mutagenic call (Test System: AMES SALMONELLA TYPHIMURIUM, Strain/Indicator: TA102, Metabolic Activation: NONE, Method: PREINCUBATION): inactive; negative

SMILES: COc1cccc2c1C(=O)c1c(O)c3c(c(O)c1C2=O)C[C@@](O)(C(C)=O)C[C@@H]3O
- mutagenic call [2]: active; positive
- mutagenic call [3]: active; positive
- mutagenic call [4]: inactive; negative
- mutagenic call (Test System: AMES SALMONELLA TYPHIMURIUM, Strain/Indicator: TA1538, Metabolic Activation: NONE, Method: STANDARD PLATE): inactive; negative

SMILES: Cn1c(N=[N+]=[N-])nc2c3ccccc3ccc21
- mutagenic call (Test System: AMES SALMONELLA TYPHIMURIUM, Strain/Indicator: TA98(1,8-DNP6), Metabolic Activation: NONE, Method: STANDARD PLATE): active; positive
- mutagenic call [2]: active; positive

SMILES: O=C1NC(=O)C(CCl)=C1Cl
- mutagenic call [4]: active; positive

SMILES: Oc1ccc(Cl)cc1Cc1cc(Cl)ccc1O
- mutagenic call [6]: inactive; negative
- mutagenic call [1]: inactive; negative
- mutagenic call [7]: inactive; negative
- mutagenic call [5]: inactive; negative
- mutagenic call (Test System: AMES SALMONELLA TYPHIMURIUM, Strain/Indicator: TA1535, Metabolic Activation: HAMSTER, LIVER, S-9, AROCLOR 1254 (30%), Method: PREINCUBATION): inactive; negative

SMILES: Nc1c(Cl)cc([N+](=O)[O-])cc1Cl
- mutagenic call [6]: active; positive
- mutagenic call [1]: active; positive
- mutagenic call [7]: active; positive
- mutagenic call (Test System: AMES SALMONELLA TYPHIMURIUM, Strain/Indicator: TA100, Metabolic Activation: HAMSTER, LIVER, S-9, AROCLOR 1254 (30%), Method: PREINCUBATION): inactive; negative
- mutagenic call [5]: inactive; negative
- mutagenic call (Test System: AMES SALMONELLA TYPHIMURIUM, Strain/Indicator: TA100, Metabolic Activation: RAT, LIVER, S-9, AROCLOR 1254 (30%), Method: PREINCUBATION): inactive; negative
- mutagenic call (Test System: AMES SALMONELLA TYPHIMURIUM, Strain/Indicator: TA100, Metabolic Activation: RAT, LIVER, S-9, KANECHLOR 500, Method: PREINCUBATION): inactive; negative

SMILES: C1CNCCN1
- mutagenic call (Test System: AMES SALMONELLA TYPHIMURIUM, Strain/Indicator: TA98, Metabolic Activation: HAMSTER, LIVER, S-9, AROCLOR 1254, Method: PREINCUBATION): inactive; negative
- mutagenic call [1]: inactive; negative
- mutagenic call (Test System: AMES SALMONELLA TYPHIMURIUM, Strain/Indicator: TA98, Metabolic Activation: RAT, LIVER, S-9, AROCLOR 1254, Method: PREINCUBATION): inactive; negative
- mutagenic call (Test System: AMES SALMONELLA TYPHIMURIUM, Strain/Indicator: TA98, Metabolic Activation: RAT, LIVER, S-9, PCB, Method: PREINCUBATION): inactive; negative
- mutagenic call (Test System: AMES SALMONELLA TYPHIMURIUM, Strain/Indicator: TA100, Metabolic Activation: HAMSTER, LIVER, S-9, AROCLOR 1254, Method: PREINCUBATION): inactive; negative
- mutagenic call [5]: inactive; negative
- mutagenic call (Test System: AMES SALMONELLA TYPHIMURIUM, Strain/Indicator: TA100, Metabolic Activation: RAT, LIVER, S-9, AROCLOR 1254, Method: PREINCUBATION): inactive; negative
- mutagenic call (Test System: AMES SALMONELLA TYPHIMURIUM, Strain/Indicator: TA100, Metabolic Activation: RAT, LIVER, S-9, PCB, Method: PREINCUBATION): inactive; negative
- mutagenic call (Test System: AMES SALMONELLA TYPHIMURIUM, Strain/Indicator: TA1535, Metabolic Activation: HAMSTER, LIVER, S-9, AROCLOR 1254, Method: PREINCUBATION): inactive; negative
- mutagenic call (Test System: AMES SALMONELLA TYPHIMURIUM, Strain/Indicator: TA1535, Metabolic Activation: NONE, Method: PREINCUBATION): inactive; negative
- mutagenic call (Test System: AMES SALMONELLA TYPHIMURIUM, Strain/Indicator: TA1535, Metabolic Activation: RAT, LIVER, S-9, AROCLOR 1254, Method: PREINCUBATION): inactive; negative
- mutagenic call (Test System: AMES SALMONELLA TYPHIMURIUM, Strain/Indicator: TA1537, Metabolic Activation: HAMSTER, LIVER, S-9, AROCLOR 1254, Method: PREINCUBATION): inactive; negative
- mutagenic call (Test System: AMES SALMONELLA TYPHIMURIUM, Strain/Indicator: TA1537, Metabolic Activation: NONE, Method: PREINCUBATION): inactive; negative
- mutagenic call (Test System: AMES SALMONELLA TYPHIMURIUM, Strain/Indicator: TA1537, Metabolic Activation: RAT, LIVER, S-9, AROCLOR 1254, Method: PREINCUBATION): inactive; negative
